This is an account of results in ChEMBL document CHEMBL1136229, “Design and synthesis of fluorinated RXR modulators” (Bioorg Med Chem Lett, 2003).

The target in one series is RXR alpha/PPAR gamma (Homo sapiens, UniProt P19793). Kind of series: Synergistic activation of BRL-49653 mediated PPAR gamma and retinoid X receptor alpha expressed in CV-1 cell transcriptional activation assay. The class given is functional, cell-based.
For another series, the species on record is Homo sapiens. Kind of series: Synergistic activation of retinoid acid receptor (RAR) transcriptional activation at 3 nM TTNPB. The class given is functional.
The target of series [1] is T1, Retinoic acid receptor gamma (Homo sapiens, UniProt P13631).
T1 sequence (P13631 whole entry): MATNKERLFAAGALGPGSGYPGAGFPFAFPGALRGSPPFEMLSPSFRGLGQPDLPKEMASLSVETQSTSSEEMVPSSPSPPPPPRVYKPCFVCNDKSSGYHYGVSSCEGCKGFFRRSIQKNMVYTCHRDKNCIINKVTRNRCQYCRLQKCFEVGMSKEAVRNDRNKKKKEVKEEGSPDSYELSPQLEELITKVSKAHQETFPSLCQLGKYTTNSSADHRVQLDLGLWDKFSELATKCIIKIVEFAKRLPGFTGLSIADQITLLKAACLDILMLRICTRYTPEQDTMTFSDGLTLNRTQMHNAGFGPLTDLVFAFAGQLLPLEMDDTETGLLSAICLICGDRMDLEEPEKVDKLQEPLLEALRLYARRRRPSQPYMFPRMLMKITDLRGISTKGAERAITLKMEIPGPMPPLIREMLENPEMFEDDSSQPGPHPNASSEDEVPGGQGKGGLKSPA
Kind of series: Inhibition of 3[H]ATRA binding to retinoid acid receptor gamma expressed in CV-1 cells. Type of series: cell-based.

The target of series [2] is T2, Retinoic acid receptor RXR-alpha (Homo sapiens, UniProt P19793).
T2 sequence (P19793 whole entry): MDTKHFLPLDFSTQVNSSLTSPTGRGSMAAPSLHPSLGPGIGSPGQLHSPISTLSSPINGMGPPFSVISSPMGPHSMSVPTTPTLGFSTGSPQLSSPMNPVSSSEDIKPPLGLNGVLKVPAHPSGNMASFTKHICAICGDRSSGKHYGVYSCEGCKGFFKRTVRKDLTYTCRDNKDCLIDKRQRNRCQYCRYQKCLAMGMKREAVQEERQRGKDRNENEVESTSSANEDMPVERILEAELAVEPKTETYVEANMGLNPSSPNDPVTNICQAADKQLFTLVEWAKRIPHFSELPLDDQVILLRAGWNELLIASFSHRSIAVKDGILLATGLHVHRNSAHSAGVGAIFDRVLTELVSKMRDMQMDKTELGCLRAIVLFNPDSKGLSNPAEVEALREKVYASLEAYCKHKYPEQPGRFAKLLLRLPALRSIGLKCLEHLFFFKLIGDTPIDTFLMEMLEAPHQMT
Kind of series: Antagonist activity against Retinoic acid receptor RXR-alpha expressed in CV-1 cell transcriptional activation assay. Type of series: functional, cell-based.

The target of series [3] is T2, Retinoic acid receptor RXR-alpha. Kind of series: Inhibition of 3[H]9-cis-retinoic acid binding to Retinoic acid receptor RXR-alpha expressed in CV-1 cells. The class given is cell-based.
For series [4] the target is unchanged. Kind of series: Agonist activity against Retinoic acid receptor RXR-alpha expressed in CV-1 cell transcriptional activation assay. The class given is functional, cell-based.
Series [5] in a line: Tmax after oral administration at 30 mg/kg in ICR mouse. Type of series: ADME, organism-based. Set-up: dose 30 mg/kg, route oral. Conditions: in vivo.
The test system of the next series is Mus musculus. Kind of series: Cmax after oral administration at 30 mg/kg in ICR mouse. Type of series: ADME, organism-based. The arrangement: dose 30 mg/kg, route oral. Conditions: in vivo.
Series [6] is described as follows: AUC (0-6 hr) after oral administration at 30 mg/kg in ICR mouse. Type of series: ADME, organism-based. The arrangement: time < 6 hr, route oral, dose 30 mg/kg. Conditions: plasma.

Chain of RXR alpha/PPAR gamma (P37231 whole entry, one chain of several): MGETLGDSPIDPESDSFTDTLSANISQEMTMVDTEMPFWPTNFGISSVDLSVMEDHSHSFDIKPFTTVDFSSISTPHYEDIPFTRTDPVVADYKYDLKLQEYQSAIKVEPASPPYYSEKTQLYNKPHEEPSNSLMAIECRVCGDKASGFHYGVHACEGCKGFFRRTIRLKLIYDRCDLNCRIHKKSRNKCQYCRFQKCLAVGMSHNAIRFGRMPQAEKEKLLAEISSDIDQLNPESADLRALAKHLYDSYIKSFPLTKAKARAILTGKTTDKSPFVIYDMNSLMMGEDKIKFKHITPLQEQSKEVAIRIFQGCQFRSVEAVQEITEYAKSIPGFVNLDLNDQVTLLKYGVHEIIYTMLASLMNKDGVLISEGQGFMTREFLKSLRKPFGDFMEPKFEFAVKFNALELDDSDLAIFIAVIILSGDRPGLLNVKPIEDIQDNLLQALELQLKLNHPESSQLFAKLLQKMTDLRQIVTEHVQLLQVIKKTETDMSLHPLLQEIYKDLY

As for `C/C(=C/C=C/C(C)=C(\F)C(=O)O)c1cc(C(C)(C)C)cc(C(C)(C)C)c1OCC(F)F`, the figures for the EC50 (at RXR alpha/PPAR gamma; in [2]) were 2.7 nM and 3.4 nM, respectively. In addition, in the series filed under Homo sapiens, the Synergy amounted to 1.5. In addition, the values for the Ki in series [1] and in [3] were more than 10 µM and 10.6 nM, respectively.
On the same counts, the results for `CCCCOc1c(\C(C)=C/C=C/C(C)=C/C(=O)O)cc(C(C)(C)C)cc1C(C)(C)C` are 9.2 nM, 3.3 nM, 1.2, more than 10 µM and 3.8 nM.
As to `C/C(=C/C(F)=C/C(C)=C/C(=O)O)c1cc(C(C)(C)C)cc(C(C)(C)C)c1OCC(F)F`, the figures for the EC50 (at RXR alpha/PPAR gamma; in series [4]; in [2]) were 249 nM, 259 nM and 8710 nM, respectively. Besides, the Synergy in the series listed under Homo sapiens turned out to be 8.9. The Ki (commonly a measure of affinity in units of concentration, obtained from inhibition or displacement) in series [1] was more than 10 µM.
Turning to `C/C(=C/C=C(F)/C(C)=C/C(=O)O)c1cc(C(C)(C)C)cc(C(C)(C)C)c1OCC(F)F`, the EC50 (as a rule, the concentration at which the effect is half-maximal) on RXR alpha/PPAR gamma turned out to be 143 nM; in series [2] it was 4840 nM. Further, in the series filed under Homo sapiens, the Synergy was determined as 2.5. The molecule also had an inhibitory constant (Ki) in [1] of more than 10 µM.
With `CCOc1c(\C(=C/C=C/C(C)=C/C(=O)O)C(F)(F)F)cc(C(C)(C)C)cc1C(C)(C)C`, the EC50 was found to be 167 nM at RXR alpha/PPAR gamma and 38 nM in series [2]. Further, the Synergy in the series listed under Homo sapiens is 7. The same molecule returned a Ki in [3] of 50.3 nM.
In the case of `CCOc1c(\C(C)=C/C=C/C(C)=C/C(=O)O)cc(C(C)(C)C)cc1C(C)(C)C`, the Synergy in the series listed under Homo sapiens is 2. This molecule also displayed a Ki in [1] of 8.57 µM. In series [2], this molecule registered an EC50 of 6.4 nM.
As to `CCCCOc1c(\C(C)=C/C=C/C(=C/C(=O)O)C(F)(F)F)cc(C(C)(C)C)cc1C(C)(C)C`, the EC50 came out at 359 nM on RXR alpha/PPAR gamma and 806 nM in series [2]. The Synergy in the series filed under Homo sapiens was determined as 1.3. Also, the Ki in [1] is more than 10 µM; in series [3] it was 5210 nM.
Turning to `CC(/C=C/C(F)=C(/C)c1cc(C(C)(C)C)cc(C(C)(C)C)c1OCC(F)F)=C\C(=O)O`, the EC50 came out at 6.4 nM on RXR alpha/PPAR gamma and 6.8 nM in series [2]. Besides, the Synergy in the series listed under Homo sapiens stood at 1.8. In addition, in series [5], the Tmax – broadly, the time at which the peak concentration occurs – turned out to be 3 h. Further, the Ki in series [1] was more than 10 µM; in series [3] it was 7.8 nM. In addition, the Cmax (as a rule, the highest concentration seen after dosing) in the series on Mus musculus amounted to 3.69 µg/mL. Besides, in [6], the AUC(0-t) (as a rule, the area under the concentration-time curve up to a stated or last time point) at 6 h turned out to be 17800 ng·h/mL.
`C/C(=C/C=C/C(C)=C/C(=O)O)c1cc(C(C)(C)C)cc(C(C)(C)C)c1OCC(F)F`: the Synergy in the series filed under Homo sapiens was 1.4. Further, the Tmax in series [5] came out at 1 h. The molecule further had a Ki in series [1] of more than 10 µM. In addition, the peak level in the series on Mus musculus (Cmax) was 1.2 µg/mL. This molecule also yielded an area under the curve AUC(0-t) at 6 h in series [6] of 2090 ng·h/mL.
